Reference: US20230263757A1, “DISINFECTING WIPE KIT FOR CENTRAL VENOUS ACCESS DEVICES” (SterileCare Inc., priority 2022, published 2023)
Counter-ions that a name gives are not always drawn.

How the values were obtained:
E. coli SK2 = assay: MIC, micro broth dilution; assay type: cell-based, Escherichia coli; settings: Escherichia coli, alone, read-out: MIC
Method: (§1) An assay was made using a minimum inhibitory concentration (MIC) and minimum bactericidal concentration (MBC) and minimum fungicidal concentration (MFC) determination. The MIC was determined by the micro broth dilution method in 96-well plates. Serial two-fold dilutions of tetrasodium EDTA (from 2% to 0.015%), ethanol (from 50% to 0.1%) and chlorhexidine HCl (from 100 μg/mL to 0.025 μg/mL) were prepared in MH broth with a final volume of 90 μL per well. A 10 μL containing 1×10^5 bacterial cells or 2×10^3 fungal cells were added to each well. The inoculated plates were covered with a lid, sealed with Parafilm, and incubated for 24 h at 37° C. with slight rocking on a tilting platform shaker. After incubation, the optical density at 600 nm (OD 600) of the cultures in each well was measured using an xMark™ Microplate Absorbance Spectrophotometer (Bio-Rad). […] MBCs and MFCs were determined by transferring 100 μL from each well with no apparent growth onto appropriate agar plates, followed by incubation for 24 h at 37° C.

C. albicans ON47 [1] = assay: MIC, micro broth dilution; assay type: cell-based, Candida albicans; settings: Candida albicans, alone, read-out: MIC
Method: as §1

S. epidermidis SK9 [2] = assay: Checkerboard titration, FICI; assay type: cell-based, Staphylococcus epidermidis; settings: EDTA + chlorhexidine HCl
Method: (§2) A fourth composition and solution included tetrasodium EDTA with ethanol or chlorhexidine HCl. This fourth composition and solution were created using checkerboard titration methods using micro broth dilution in 96-well microtiter plates. The concentrations of antimicrobials used were based on previously determined MIC values. Briefly, 200 μL, of two-fold dilutions of tetrasodium EDTA and ethanol or chlorhexidine HCl were prepared in MH or MH II broth with standardized cell suspension. […] Microtiter plates were incubated at 37° C. for 24 h, and the results were analyzed. Each test was performed in duplicate and included a growth control without adding any antimicrobials.

Candida albicans SK4b [3] = assay: Checkerboard titration, FICI; assay type: cell-based; settings: EDTA + chlorhexidine HCl
Method: as §2

Escherichia coli ON29 = assay: Checkerboard titration, FICI; assay type: cell-based; settings: EDTA + chlorhexidine HCl
Method: as §2

Proteus mirabilis ON153 = assay: Checkerboard titration, FICI; assay type: cell-based; settings: EDTA + chlorhexidine HCl
Method: as §2

[4] = test system: Pseudomonas aeruginosa SK1; assay: Checkerboard titration, FICI; assay type: cell-based; settings: EDTA + chlorhexidine HCl
Method: as §2

Serratia marcescens SK2 [5] = assay: Checkerboard titration, FICI; assay type: cell-based; settings: EDTA + chlorhexidine HCl
Method: as §2

[6] = test system: Staphylococcus aureus ON89; assay: Checkerboard titration, FICI; assay type: cell-based; settings: EDTA + chlorhexidine HCl
Method: as §2

[7] = test system: Staphylococcus epidermidis ON170; assay: Checkerboard titration, FICI; assay type: cell-based; settings: EDTA + chlorhexidine HCl
Method: as §2

[8] = test system: Stenotrophomonas maltophilia ON17; assay: Checkerboard titration, FICI; assay type: cell-based; settings: EDTA + chlorhexidine HCl
Method: as §2

S. epidermidis SK9 [9] = assay: MBC/MFC determination; assay type: cell-based, Staphylococcus epidermidis; settings: alone
Method: as §1

S. epidermidis SK9 [10] = assay: Checkerboard, FMCI; assay type: cell-based, Staphylococcus epidermidis; settings: EDTA + chlorhexidine HCl
Method: as §1, §2

MRSA ON184 = assay: Checkerboard, FMCI; assay type: cell-based, S. aureus; settings: EDTA + chlorhexidine HCl
Method: as §1, §2

Candida albicans SK4b [11] = assay: Checkerboard, FMCI; assay type: cell-based; settings: EDTA + chlorhexidine HCl
Method: as §1, §2

[12] = test system: Pseudomonas aeruginosa SK1; assay: Checkerboard, FMCI; assay type: cell-based; settings: EDTA + chlorhexidine HCl
Method: as §1, §2

Serratia marcescens SK2 [13] = assay: Checkerboard, FMCI; assay type: cell-based; settings: EDTA + chlorhexidine HCl
Method: as §1, §2

[14] = test system: Staphylococcus aureus ON89; assay: Checkerboard, FMCI; assay type: cell-based; settings: EDTA + chlorhexidine HCl
Method: as §1, §2

[15] = test system: Staphylococcus epidermidis ON170; assay: Checkerboard, FMCI; assay type: cell-based; settings: EDTA + chlorhexidine HCl
Method: as §1, §2

[16] = test system: Stenotrophomonas maltophilia ON17; assay: Checkerboard, FMCI; assay type: cell-based; settings: EDTA + chlorhexidine HCl
Method: as §1, §2

C. albicans ON47 [17] = assay: MBEC assay, 48-h biofilm, 24 h exposure; assay type: cell-based, Candida albicans
Method: A biofilm cultivation cell composition was provided. This fifth composition was created using an MBEC Assay® biofilm inoculator, consisting of a polystyrene lid with 96 downward-protruding pegs and a corresponding base used to grow biofilms. A standardized inoculum was diluted in an appropriate biofilm growth medium to achieve a viable cell count of 1.5×10^6 CFU/mL of bacterial cells or 5×10^5 CFU/mL of fungal cells. Then, 150 μL of this inoculum was transferred into each appropriate well, and the peg lids were inserted into the microtiter plates. The plates were sealed with Parafilm and were incubated at optimum temperature for 48 h with slight rocking for bacteria and shaking at 200 rpm for fungal strains. After incubation, the peg lid was removed from the base and rinsed twice with sterile phosphate-buffered saline (PBS) for 2 min to remove loosely attached non-sessile cells. Before the antimicrobial challenge, the pegs in column 1 (n=8) were considered the biofilm growth control; these pegs were removed from the lids, placed into 200 μL of recovery medium, and analyzed for starting biofilm cell numbers as described below. The rinsed pegs were placed into new 96-well plates containing two-fold dilutions of antimicrobials such as tetrasodium EDTA (4%-0.0125%), ethanol (100%-0.2%), and chlorhexidine HCl (100 μg/mL-0.4 μg/mL) in 200 μL of suitable biofilm growth medium per well and incubated at optimum temperature for 24 h. After the antimicrobial challenge, the pegs were rinsed twice with sterile PBS for 2 min and placed into a new 96-well plate containing 200 μL of recovery medium. The recovery plates were sealed with Parafilm, and biofilm cells were dislodged from the pegs by sonication for 30 min with a Branson 3510 bath sonicator. The biofilm cells in the recovery medium were serially diluted, and a drop dilution assay was performed to enumerate the viable cells. MBEC values were determined as the minimum concentration of antimicrobials that yielded a viable cell count at or lower than the 125 CFU/mL detection limit.

[18] = test system: Staphylococcus epidermidis SK9; assay: FBEC index, checkerboard on biofilms; assay type: cell-based; settings: EDTA + chlorhexidine HCl
Method: (§3) In step (4), microtiter plates are incubated at 37° C. for 24 h. then (6), after incubation, the bacterial and fungal cells were dislodged from the pegs into the recovery medium described above.
(§4) Three 10-μL aliquots, for a total of 30 μL from each well of recovery medium, were spotted on MH agar plates and incubated for 24 h at 37° C. […] The FBEC determination is a modification of the FICI.

[19] = test system: Pseudomonas aeruginosa SK1; assay: FBEC index, checkerboard on biofilms; assay type: cell-based; settings: EDTA + chlorhexidine HCl
Method: as §3, §4

Candida albicans SK4b [20] = assay: FBEC index, checkerboard on biofilms; assay type: cell-based; settings: EDTA + chlorhexidine HCl
Method: as §3, §4

C. albicans ON47 [21] = assay: FBEC index, checkerboard on biofilms; assay type: cell-based, Candida albicans; settings: EDTA + chlorhexidine HCl
Method: as §3, §4

[H]/N=C(\N/C(=N/[H])NCCCCCCNC(=N)NC(=N)Nc1ccc(Cl)cc1)Nc1ccc(Cl)cc1 [Chlorhexidine HCl, 1,6-bis(4′-chlorophenylbiguanide) hexane]
MIC (E. coli SK2): 0.4 µg/mL | MIC (C. albicans ON47 [1]): 1.6 µg/mL | Chlorhexidine HCl concentration in combination (S. epidermidis SK9 [2]): 0.025 µg/mL | Chlorhexidine HCl concentration in combination (Candida albicans SK4b [3]): 0.8 µg/mL | Chlorhexidine HCl concentration in combination (Escherichia coli ON29): 0.2 µg/mL | Chlorhexidine HCl concentration in combination (Proteus mirabilis ON153): 0.8 µg/mL | Chlorhexidine HCl concentration in combination [4]: 0.8 µg/mL | Chlorhexidine HCl concentration in combination (Serratia marcescens SK2 [5]): 1.5 µg/mL | Chlorhexidine HCl concentration in combination [6]: 0.1 µg/mL | Chlorhexidine HCl concentration in combination [7]: 0.05 µg/mL | Chlorhexidine HCl concentration in combination [8]: 0.2 µg/mL | MBC/MFC (S. epidermidis SK9 [9]): 0.8 µg/mL | Chlorhexidine HCl microbicidal concentration in combination (S. epidermidis SK9 [10]): 0.4 µg/mL | Chlorhexidine HCl microbicidal concentration in combination (MRSA ON184): 0.4 µg/mL | Chlorhexidine HCl microbicidal concentration in combination (Candida albicans SK4b [11]): 0.8 µg/mL | Chlorhexidine HCl microbicidal concentration in combination [12]: 1.6 µg/mL | Chlorhexidine HCl microbicidal concentration in combination (Serratia marcescens SK2 [13]): 1.6 µg/mL | Chlorhexidine HCl microbicidal concentration in combination [14]: 0.2 µg/mL | Chlorhexidine HCl microbicidal concentration in combination [15]: 0.4 µg/mL | Chlorhexidine HCl microbicidal concentration in combination [16]: 0.4 µg/mL | MBEC (C. albicans ON47 [17]): 25 µg/mL | Chlorhexidine HCl biofilm eradication concentration in combination (FBEC) [18]: 3.125 µg/mL | Chlorhexidine HCl biofilm eradication concentration in combination (FBEC) [19]: 3.125 µg/mL | Chlorhexidine HCl biofilm eradication concentration in combination (FBEC) (Candida albicans SK4b [20]): 6.25 µg/mL | Chlorhexidine HCl biofilm eradication concentration in combination (FBEC) (C. albicans ON47 [21]): 6.25 µg/mL
